The numbers were not newly measured in patent publication US20050244491A1, “Fast disintegrating meloxicam tablet” (Boehringer Ingelheim International GmbH, priority 2001, published 2005), which cites them from elsewhere.

For the data set the following is noted: in acidic or neutral medium.

Take `Cc1cnc(NC(=O)C2=C(O)c3ccccc3S(=O)(=O)N2C)s1` [Meloxicam, 2H-1,2-benzothiazine-3-carboxamide, 4-hydroxy-2-methyl-N-(5-methyl-2-thiazolyl)-1,1-dioxide]: the solubility result is “low”.
